Results taken from patent US11602578B2, “Crosslinkable polypeptide and hyaluronic acid coatings” (Université de Strasbourg, priority 2017, dated 2023).

How the values were obtained:
S. aureus [1] = conditions: with S. aureus; Adv. Funct. Mater. 2013, 23, 4801-4809; cited from earlier work
S. aureus [2] = assay: PAR in solution: S. aureus growth and minimal inhibitory concentration in MHB medium; format: cell-based, Staphylococcus aureus; conditions: for inhibition of S. aureus growth by PAR in solution (in words): concentrations up to 0.04 mg·mL^−1, 24 h at 37° C. in MHB; for times less active than PAR100 or PAR200 chains: from the MICs determined in solution; for inhibition of bacterial growth by PAR in solution (in words): at 1 μM
Experimental: PAR with 10, 30, 100 or 200 arginine residues per chain were tested. Each PAR was incubated 24 h at 37° C. in 300 μL of MHB medium with S. aureus (A620=0.001). Pathogen growth of 0% corresponds to medium with antibiotics (and without PAR) and 100% to medium without PAR. Each value corresponds to the mean value of 3 individual experiments (3 samples per experiment and condition) and error bars correspond to standard deviations. For each concentration, the first column represents the normalized pathogen growth of S. aureus for PAR10, the 2nd column for PAR30, the third column for PAR100 and the fourth for PAR200.
In the following the inventors of the present invention wanted to further elucidate the underlying mechanism that confer to the coatings of the invention the strong inhibitory property on the surface and in the supernatant. As an example the (PAR30/HA)24 coating was further investigated. Accordingly, the minimal inhibitory concentration (MIC) of PAR in solution was determined using bacterial assay as described in Experimental Section. […] Finally for PAR at concentrations of 0.01 mg·mL^−1, inhibition of 100% was shown only for PAR30. Longer or shorter PAR chains (PAR10, PAR100 or PAR200) inhibits only partially (less than 40%) S. aureus growth. […] This reasoning is valid when PAR concentration values are expressed in mass (mg·mL^−1) thus it is related to the number of arginine monomers. However when the graph is plotted with concentrations in μM (and thus proportional in number of chains), which means that concentration is related to number of chains, different interpretation can be made. […] Moreover the MIC100 values obtained for PAR30, PAR100 or PAR200 ranges at very low concentrations (between 1 and 2 μM) which is remarkable when compared to well-known antimicrobial peptides (for example 30 μM for cateslytin with S. aureus, see Adv. Funct. Mater. 2013, 23, 4801-4809). PAR is thus a powerful candidate to fight against S. aureus.

Row | Substance | MIC of a known antimicrobial peptide (S. aureus [1]) | concentration needed to totally inhibit bacterial growth in solution (S. aureus [2]; S. aureus, PAR in solution) | inhibition of S. aureus growth by PAR in solution (in words) (S. aureus [2]) | times less active than PAR100 or PAR200 chains (S. aureus [2]) | inhibition of S. aureus growth by PAR in solution (S. aureus [2]; 0.01 mg·mL^−1, 24 h at 37° C. in MHB) | MIC90 (S. aureus [2]; S. aureus, PAR in solution) | inhibition of bacterial growth by PAR in solution (in words) (S. aureus [2]) | inhibition of S. aureus growth by PAR in solution (S. aureus [2]; 0.02 mg·mL^−1, 24 h at 37° C. in MHB)
1 | cateslytin | 30 µM | – | – | – | – | – | – | –
2 | poly-L-arginine [PAR10] | – | about 10 μM | totally inhibited | 10 times | – | – | – | –
3 | poly-L-arginine [PAR30] | – | about 10 μM | totally inhibited | 2 times | 100% | about 2 μM | – | –
4 | poly-L-arginine [PAR100] | – | – | totally inhibited | – | – | – | totally inhibit | –
5 | poly-L-arginine [PAR200] | – | – | totally inhibited | – | – | – | totally inhibit | about 45%
